In PMC8116058, “De novo macrocyclic peptides dissect energy coupling of a heterodimeric ABC transporter by multimode allosteric inhibition” (eLife, 2021):
Positions of bridges follow the written chain, without caps; N, C: chain ends. Non-standard residues stand in square brackets, D forms with d. Residues, ends and D or L forms follow the SMILES beside them. *: point of attachment. 5FAM = O=C1OC2(c3ccc(O)cc3Oc3cc(O)ccc32)c2ccc(C(=O)*)cc21; βAla = NCCC(=O)O

Columns and labels:
[1] = test system: TmrAB; experiment: ATP binding by scintillation proximity assay (SPA); parameters: species or system Thermus thermophilus; conditions: CP^B 1 µM; for Effect on ATP binding to TmrAB: SPA; for Signal, ATP binding: TmrAB 0.2 µM on SPA beads, ATP 3 µM traced with 3H-ATP, 30 min on ice, without CP 5.06; for Signal, Background: after release of TmrAB from beads with imidazole 200 mM
Excerpt: To elucidate the mechanistic basis for the inhibition of ATP hydrolysis and substrate transport, we investigated the effects of CPs on substrate binding. In the first approach, fluorescent CP^Fs were used as reporters in fluorescence polarization. […] In addition, we examined the impact of CP^Bs on ATP binding to TmrAB by scintillation proximity assays (SPA) (Figure 4C). […] Taken together, CPs are high-affinity allosteric inhibitors of TmrAB that leave ATP binding and substrate interaction largely unaffected, while impairing ATP hydrolysis and substrate translocation across the membrane.
Figure 4. […] (A) CP^Fs binding TmrAB is not affected by substrate peptide binding. […] For competition, C4^ATTO655 peptide (2 µM) or R9LQK peptide (200 µM) were added. (B) Binding of C4F peptide is not affected by CP^Bs. C4F peptides (50 nM) were mixed with TmrAB (4 µM), and fluorescence anisotropy was monitored as described in (A). For competition, C4^ATTO655 (10 µM) or CP^Bs (6 µM) were added. […] TmrAB (0.2 µM) were immobilized on SPA beads and incubated with ATP (3 μM, traced with ^3H-ATP) in the presence and absence of CP^Bs (1 µM each) for 30 min on ice. ATP binding was monitored by SPA. Background values were determined after releasing TmrAB complexes from the beads by adding imidazole (200 mM). The background signal in the absence of CP^Bs was set to 0 cpm. […] As this is an equilibrium experiment, this can be rationalized by the fact that CP13 stabilizes the ATP-bound OF conformer. Figure 4—source data 1. Source data for Figure 4.
DDM-solubilized TmrAB (0.2 µM) was incubated with ATP (2.8 μM), [2,5’,8-^3H(N)]-ATP (0.2 µM, ^3H-ATP, PerkinElmer), MgCl2 (3 mM), and CP^Bs (1 µM) for 30 min on ice. Copper-chelated SPA beads (PerkinElmer) were added to a final concentration of 5 mg/ml. Total binding was determined at 20°C in cpm mode (Wallac MicroBeta). Bound TmrAB complexes were eluted by adding 200 mM of imidazole, and background binding was determined. Data represent mean ± SD from three experiments.

[2] = test system: wild-type TmrAB; experiment: Nucleotide occlusion, wild-type TmrAB; type: biochemical, Thermus thermophilus; conditions: 5 min 45°C; for Effect on nucleotide occlusion, wild-type TmrAB: CP^F 4 µM; for Occluded nucleotides, ADP / Occluded nucleotides, ATP: TmrAB 2 µM, CP^F 4 µM or orthovanadate 1 mM, ATP 1 mM traced with [α32P]-ATP, normalized to vanadate-trapped state
Procedure: Figure 5. […] (A, B) CP6^F (A) or CP13^F (B, 50 nM each) were incubated with increasing concentrations of detergent-solubilized inward-facing TmrAB (in the absence of Mg-ATP) or outward-facing TmrA^EQB, which was trapped with Mg-ATP (1 mM) for 5 min at 45°C as described ([Hofmann et al., 2019]; [Stefan et al., 2020]). Immediately after, the fluorescence anisotropy was assayed at λex/em = 485/520 nm. The difference in fluorescence polarization was normalized to free and fully bound CP^F. Data were fitted by a one-site binding model. […] TmrAB (2 µM each) were mixed with CP^Fs (4 µM), ATP (1 mM, traced with [α^32P]-ATP), and MgCl2 (5 mM) for 5 min at 4°C or 45°C. Cold ATP (10 mM) was added, and freely exchangeable nucleotides were removed by rapid gel filtration. Occluded nucleotides were analyzed by thin layer chromatography and autoradiography. Representative radiograms for independent triplicates are shown. (D) Stably occluded nucleotides, [α^32P]-ATP and [α^32P]-ADP, were quantified by autoradiography. Data were normalized to the vanadate-trapped state. In (A, B, D), mean values ± SD (n = 3) are shown. Figure 5—source data 1. Source Data for Figure 5. Figure 5—figure supplement 1. […] (A) CP^Fs (50 nM each) were incubated with increasing concentrations of detergent-solubilized IF TmrAB in the inward-facing (IF) conformation (absence of Mg-ATP) or TmrA^EQB populated in the outward-facing (OF) conformation, which was trapped in the OF conformation by Mg-ATP (1 mM) after 5 min incubation at 45°C. The difference in fluorescence polarization was normalized to unbound (0%) and 100% bound CP^F. Data were fitted by a one-site binding model. Fluorescence anisotropy was recorded at λex/em = 485/520 nm. […] TmrA^EQB (2 µM) were incubated in the absence and presence of CP^Fs (4 µM each), ATP (1 mM, traced with [α^32P]-ATP), and MgCl2 (5 mM) for 5 min at 4°C or 45°C. Cold ATP (10 mM) was added, and free nucleotides were removed by rapid gel filtration. Occluded nucleotides were analyzed by thin layer chromatography and autoradiography. Representative radiograms for independent triplicates are shown. […] Figure 5—figure supplement 1—source data 1.
We also examined the impact of CP^Fs on the IF-to-OF transition of wild-type TmrAB induced by ATP binding through nucleotide occlusion (stable trapping) as the readout. We induced the IF-to-OF switch with radiotraced [α^32P]-ATP for 5 min at 45°C in the presence and absence of CPs and removed unbound nucleotides by rapid gel filtration. Subsequently, the occluded nucleotides were identified and quantified by thin layer chromatography and autoradiography (Figure 5C, D).
Detergent-solubilized TmrAB (2 µM) were incubated with ATP (1 mM) traced with [α^32P]-ATP (Hartmann Analytic), MgCl2 (5 mM), CP^Fs (4 µM), or orthovanadate (1 mM) for 5 min at 45°C. Cold ATP (10 mM) was added, and unbound nucleotides were removed by rapid gel filtration (Bio-Spin columns P-30, Bio-Rad). ATP (10 mM) was added, and samples were spotted onto polyethyleneimine cellulose plates (Merck Millipore). Thin-layer chromatography was performed using 0.75 M KH2PO4 pH 3.4.

| SMILES | Effect on ATP binding to TmrAB [1] | Signal, ATP binding [1] [cpm*10^3] | Signal, Background [1] [cpm*10^3] | Effect on nucleotide occlusion, wild-type TmrAB [2] | Occluded nucleotides, ADP [2] [%] | Occluded nucleotides, ATP [2] [%] | Effect on ATP binding to TmrAB ([1]; listed as CP13^B) |
| --- | --- | --- | --- | --- | --- | --- | --- |
| CC(C)[C@@H]1NC(=O)[C@H](Cc2ccccc2)NC(=O)[C@@H]2CCCN2C(=O)[C@H](CC(N)=O)NC(=O)[C@H](Cc2c[nH]c3ccccc23)NC(=O)[C@H](C(C)C)NC(=O)[C@H](Cc2ccc(O)cc2)NC(=O)[C@H](Cc2ccccc2)NC(=O)[C@@H](Cc2ccc(O)cc2)NC(=O)CSC[C@@H](C(=O)NCC(=O)N[C@@H](CO)C(=O)NCCC(=O)NCCC(=O)N[C@@H](CCCNC(=N)N)C(=O)N[C@@H](CCCCNC(=O)c2ccc3c(c2)C(=O)OC32c3ccc(O)cc3Oc3cc(O)ccc32)C(N)=O)NC(=O)[C@H](CCCCN)NC(=O)[C@H](Cc2ccccc2)NC1=O [CP14] ({CH2CO}-[dY]FYVWNPFVFKCGS[βAla][βAla]RK(5FAM)-NH2; thioether N-12; C-terminus assumed) | no effect on ATP binding | 5.10 | 0.08 | promoted stable ATP occlusion | 8.19 | 88.51 | – |
| CC[C@H](C)[C@@H]1NC(=O)[C@H]([C@@H](C)O)NC(=O)[C@H](CC(C)C)NC(=O)[C@H](Cc2c[nH]c3ccccc23)NC(=O)[C@H](Cc2ccccc2)NC(=O)[C@H](CC(N)=O)NC(=O)[C@H](CCC(=O)O)NC(=O)[C@H](CC(C)C)NC(=O)[C@H](CS)NC(=O)[C@H](Cc2c[nH]cn2)NC(=O)[C@H](CO)NC(=O)[C@@H](Cc2ccc(O)cc2)NC(=O)CSC[C@@H](C(=O)NCC(=O)N[C@@H](CO)C(=O)NCCC(=O)NCCC(=O)N[C@@H](CCCNC(=N)N)C(=O)N[C@@H](CCCCNC(=O)c2ccc3c(c2)C(=O)OC32c3ccc(O)cc3Oc3cc(O)ccc32)C(N)=O)NC(=O)[C@H](CC(C)C)NC1=O [CP6] ({CH2CO}-[dY]SHCLENFWLTILCGS[βAla][βAla]RK(5FAM)-NH2; thioether N-14) | only minor effects on ATP binding | 4.22 | -0.04 | nucleotide occlusion was completely abolished | 2.66 | 6.76 | – |
| CC(C)C[C@@H]1NC(=O)[C@H](Cc2ccccc2)NC(=O)CNC(=O)[C@H](CO)NC(=O)[C@H](Cc2ccccc2)NC(=O)[C@H](CC(=O)O)NC(=O)[C@@H]2CCCN2C(=O)[C@H]([C@@H](C)O)NC(=O)[C@@H](Cc2ccc(O)cc2)NC(=O)CSC[C@@H](C(=O)NCC(=O)N[C@@H](CO)C(=O)NCCC(=O)NCCC(=O)N[C@@H](CCCNC(=N)N)C(=O)N[C@@H](CCCCNC(=O)c2ccc3c(c2)C(=O)OC32c3ccc(O)cc3Oc3cc(O)ccc32)C(N)=O)NC(=O)[C@H](C)NC(=O)[C@H](CC(N)=O)NC(=O)[C@H](CCCNC(=N)N)NC(=O)[C@H](CC(C)C)NC(=O)[C@H](Cc2ccccc2)NC(=O)[C@H](C)NC1=O [CP12] ({CH2CO}-[dY]TPDFSGFLAFLRNACGS[βAla][βAla]RK(5FAM)-NH2; thioether N-16) | no effect on ATP binding | 5.02 | 0.08 | nucleotide occlusion was completely abolished | 3.67 | 7.52 | – |
| CC[C@H](C)[C@@H]1NC(=O)[C@H](Cc2c[nH]c3ccccc23)NC(=O)[C@H](CC(N)=O)NC(=O)[C@H](C)NC(=O)[C@H](CO)NC(=O)[C@@H]2CCCN2C(=O)[C@H](CC(=O)O)NC(=O)[C@@H](Cc2ccc(O)cc2)NC(=O)CSC[C@@H](C(=O)NCC(=O)N[C@@H](CO)C(=O)NCCC(=O)NCCC(=O)N[C@@H](CCCNC(=N)N)C(=O)N[C@@H](CCCCNC(=O)c2ccc3c(c2)C(=O)OC32c3ccc(O)cc3Oc3cc(O)ccc32)C(N)=O)NC(=O)[C@H]([C@@H](C)O)NC(=O)[C@H](CC(C)C)NC(=O)[C@H](CC(C)C)NC(=O)[C@H](C(C)C)NC(=O)[C@H](CC(C)C)NC1=O [CP13] ({CH2CO}-[dY]DPSANWILVLLTCGS[βAla][βAla]RK(5FAM)-NH2; thioether N-14; C-terminus assumed) | value of bound ATP exceeds the control without CPs | 6.33 | 0.19 | promoted stable ATP occlusion | 10.47 | 55.84 | only minor effects on ATP binding |
